Experimental data: ChEMBL document CHEMBL1212732, “Conformational inhibition of the hepatitis C virus internal ribosome entry site RNA” (Nat Chem Biol, 2009)
Active and inactive are the calls of the source. The calls are words filed in the database; no cut-off is given here.

Key:
[1] = test system: Hepatitis C virus; test: Inhibition of HCV 1b replicon translation in human HuH7 cells transfected with BM4-5 FEO HCV replicon RNA A57U mutant by luciferase reporter assay relaitv to wild type; assay type: functional, Hepacivirus hominis, genotype 1b, Huh-7
[2] = test system: Internal ribosome entry site (IRES); test: Binding affinity to HCV 2AP54-labelled IRES subdomain 2a RNA in presence of Mg2+ by FRET assay; assay type: nucleic-acid assay; conditions: Hepacivirus hominis
[3] = test system: Internal ribosome entry site (IRES); test: Binding affinity to HCV 2AP54-labelled IRES subdomain 2a RNA in presence of Mg2+ by FRET assay in presence of eukaryotic tRNA; assay type: nucleic-acid assay; conditions: Hepacivirus hominis
[4] = molecular target: Internal ribosome entry site (IRES); test: Binding affinity to HCV 2AP54-labelled IRES subdomain 2a RNA in presence of 0.3 mM Mg2+ by FRET assay; assay type: nucleic-acid assay, Hepacivirus hominis
[5] = test system: Hepacivirus hominis; test: Inhibition of HCV NS5B RNA dependent RNA polymerase after 24 mins
[6] = test system: Hepatitis C virus; test: Inhibition of HCV 1b replicon translation in human HuH7 cells transfected with BM4-5 FEO HCV replicon RNA after 8 hrs by luciferase reporter assay; assay type: functional, organism-based, Hepacivirus hominis; conditions: genotype 1b, Huh-7, 8 h
[7] = Cytotoxicity against human HuH7 cells at 0.25-25 uM after 48 hrs by colorimetric viability assay; assay type: cell-based; conditions: huh-7, 48 h
[8] = molecular target: Internal ribosome entry site (IRES); test: Binding affinity to HCV 2AP54-labelled IRES subdomain 2a RNA C55U mutant in presence of 1 mM Mg2+ by FRET assay; assay type: nucleic-acid assay, Hepacivirus hominis
[9] = molecular target: Internal ribosome entry site (IRES); test: Binding affinity to HCV 2AP54-labelled IRES subdomain 2a RNA in presence of 1 mM Mg2+ by FRET assay; assay type: nucleic-acid assay, Hepacivirus hominis
[10] = molecular target: Internal ribosome entry site (IRES); test: Binding affinity to HCV 2AP54-labelled IRES subdomain 2a RNA C58A mutant in presence of 1 mM Mg2+ by FRET assay; assay type: nucleic-acid assay, Hepacivirus hominis
[11] = test system: Hepacivirus hominis; test: Inhibition of HCV NS5B RNA dependent RNA polymerase after 60 mins
[12] = test system: Internal ribosome entry site (IRES); test: Binding affinity to HCV Cy3/Cy5-labelled IRES subdomain 2a RNA by FRET assay; assay type: nucleic-acid assay; conditions: Hepacivirus hominis
[13] = molecular target: Internal ribosome entry site (IRES); test: Binding affinity to HCV 2AP54-labelled IRES subdomain 2a RNA U56G/A57U mutant in presence of 1 mM Mg2+ by FRET assay; assay type: nucleic-acid assay, Hepacivirus hominis
[14] = test system: Hepatitis C virus; test: Inhibition of HCV 1b replicon translation in human HuH7 cells transfected with BM4-5 FEO HCV replicon RNA after 4 hrs by luciferase reporter assay; assay type: functional, organism-based, Hepacivirus hominis; conditions: genotype 1b, Huh-7, 4 h
[15] = molecular target: Internal ribosome entry site (IRES); test: Binding affinity to HCV 2AP54-labelled IRES subdomain 2a RNA C55A mutant in presence of 1 mM Mg2+ by FRET assay; assay type: nucleic-acid assay, Hepacivirus hominis
[16] = molecular target: Internal ribosome entry site (IRES); test: Binding affinity to HCV 2AP54-labelled IRES subdomain 2a RNA A54G mutant in presence of 1 mM Mg2+ by FRET assay; assay type: nucleic-acid assay, Hepacivirus hominis
[17] = molecular target: Internal ribosome entry site (IRES); test: Binding affinity to HCV 2AP54-labelled IRES subdomain 2a RNA A57U mutant in presence of 1 mM Mg2+ by FRET assay; assay type: nucleic-acid assay, Hepacivirus hominis
[18] = molecular target: Internal ribosome entry site (IRES); test: Binding affinity to HCV 2AP54-labelled IRES subdomain 2a RNA by mass spectrometry; assay type: nucleic-acid assay, Hepacivirus hominis
[19] = test system: Hepatitis C virus; test: Inhibition of HCV 1b replicon translation in human HuH7 cells transfected with BM4-5 FEO HCV replicon RNA after 48 hrs by luciferase reporter assay; assay type: functional, organism-based, Hepacivirus hominis; conditions: genotype 1b, Huh-7, 48 h

Row | SMILES | inhibition (INH) [1] [%] | Activity [2] | Activity [3] | EC50 [4] [nM] | inhibition [5] | IC50 [6] [nM] | Activity [7] | EC50 [8] [nM] | EC50 [9] [nM] | EC50 [10] [nM] | inhibition [11] | Activity [12] | EC50 [13] [nM] | IC50 [14] [nM] | EC50 [15] [nM] | EC50 [16] [nM] | EC50 [17] [nM] | Kd [18] [nM] | IC50 [19] [nM]
1 | CN(C)CC1COc2ccc3nc4n(c3c2C1)CC(CN(C)C)CN4 (stereo not given) | 15 | Dose-dependent effect | Active | 260 | Active | 9500 | Toxic | 320 | 600 | 760 | Active | inactive | 4100 | 4000 | 650 | 490 | 4200 | 720 | 2000
2 | CN(C)CC(CO)Cn1c(N)nc2ccc3c(c21)CC(CO)CO3 (stereo not given) | – | – | – | – | – | – | – | – | 90000 | – | – | – | – | – | – | – | – | – | –
